Test results from US8673620B2, “Radioresistant alga of the Coccomyxa genus” (priority 2010, dated 2014).

How the values were obtained:
Coccomyxa actinabiotis [1] = format: cell-based; conditions: after one day; 250 mg fresh mass of microalgae from BBM culture
Experimental: Another experiment was carried out by placing 250 mg of fresh mass of microalgae originating from cultures in BBM medium in the presence of […] of demineralized water which has a composition similar to that of the water from the spent fuel storage pools, namely pH 5.5, conductivity 1.2 μS/cm, containing 280 Bq/l of ^60Co, 530 Bq/l of ^58Co, 66 Bq/l of ^110mAg, 1460 Bq/l of ^124Sb, 1180 Bq/l of ^51Cr, 120 Bq/l of ^65Zn, […] and also tritium (260 000 Bq/l) and ^14C (10 000 Bq/l).

Coccomyxa actinabiotis [2] = assay: Transported decontamination of storage pool water, 24 h contact; format: cell-based; conditions: 50 ml water, 9×10^8 cells (140 mg fresh mass)
Experimental: Water originating from a spent nuclear element storage pool was brought into contact with Coccomyxae actinabiotis(50 ml of water in contact with 9×10^8 cells, i.e. 140 mg of algae by fresh mass, originating from culture and rinsed beforehand three times with Milli-Q water).
Table V below indicates the initial composition of the water, according to the total γ-activity measured and the γ-activity measured per radionuclide, and the percentage of γ-emitting radionuclides bound by the algae at 24 h.

Coccomyxa actinabiotis [3] = assay: Exposure to heavy water: respiration and photosynthesis of the algae; format: cell-based; conditions: 24 h and 48 h in 50%, 80% and 100% D2O in the dark; 24 h light in 50% D2O
Coccomyxa actinabiotis [4] = assay: Growth in the presence of cobalt; format: cell-based
Source text: However, the Coccomyxa actinabiotis microalga does grow in the presence of 10^−4 mol/l of cobalt.

Coccomyxa actinabiotis [5] = assay: Extraction of bound metals from the microalgae with water or HCl; format: cell-based
Experimental: Experiments in which the metals bound by the algae are solubilized were carried out by incubating these algae (70 mg of fresh matter) in 5 ml of demineralized water, or of demineralized water supplemented with HCl at various concentrations. In neutral medium, the metals are not extracted.
The cations most retained are ^60Co, ^108mAg and ^110mAg. They remain bound to the cell for low concentrations of HCl (pH 4.5 to 2.5). They begin to be released exponentially below a threshold pH of 2.5, Co being the most solidly bound since it is at most 35% extracted after 6 days of exposure at pH 0.5, whereas Ag is 90% extracted under the same conditions. At pH 1.5, 10% of Ag and 2% of Co are extracted after 6 days of exposure.

Deinococcus radiodurans = conditions: John et al. 2000; cited from earlier work
Coccomyxa actinabiotis [6] = assay: Maximum metal concentrations tolerated (one week exposure to Ag or Co); format: cell-based
Experimental: The limiting doses supported by Coccomyxa actinabiotis were investigated by exposure of the algae to silver or to cobalt for one week (20 mg of microalgae (fresh mass) in 100 ml of deionized water containing Ag or Co ions at various concentrations).

Coccomyxa actinabiotis [7] = assay: Extraction of bound metals from the microalgae with 0.1 M EDTA pH 4.5; format: cell-based; conditions: 0.1 M EDTA pH 4.5, 2 days of exposure
Experimental: Other experiments were carried out in the presence of a 0.1 M solution of EDTA with a pH of 4.5. Under these conditions, 35% of the ^51Cr contained in the algae, but only 1% of the ^60Co and less than 0.5% of ^108mAg and ^116mAg, are extracted after 2 days of exposure.

Coccomyxa actinabiotis [8] = assay: Kinetics of binding and incorporation of silver by algae with or without mucilage; format: cell-based
Experimental: Two series of experiments were carried out: one with algae having a coating of mucilage, the thickness of which, evaluated by optical microscopy, is about 1 μm or more (“algae with mucilage”), the other with algae cultured in BBM medium and having little or no mucilage (“algae without mucilage”).
20 mg of algae (compacted fresh mass) and 90 ml of solution of Ag^+ at various concentrations are introduced into Erlenmeyer flasks. The 20 mg of algae are prepared as follows: sample taken from a round-bottomed culture flask, centrifugation for 20 minutes at 3000 rpm, washing twice in demineralized water (suspension, centrifugation). The culture medium is thus removed and there is no risk of it complexing the silver.
The algae without mucilage are brought into contact with solutions containing 0.11 mg/L and 5.5 mg/L of Ag^+.
The algae with mucilage are brought into contact with solutions containing 22 μg/L, 1.1 mg/L and 55 mg/L of Ag^+.
The Erlenmeyer flasks are placed on illuminated shakers and samples of 5 ml are taken for various exposure times in order to monitor the binding kinetics for each of the initial concentrations of silver. The samples are centrifuged for 10 minutes at 4500 rpm in order to separate the algae which have concentrated the metal. The metal content is then analyzed in the pellet (algae) and in the supernatant.

organisms = conditions: Ratte 1999; cited from earlier work

[110Ag] [^110mAg]
percentage of isotope fixed (Coccomyxa actinabiotis [1]): 100% | % binding by the algae (Coccomyxa actinabiotis [2]): 100%

[2H]O[2H] [heavy water]
effect on respiration and photosynthesis of the algae (Coccomyxa actinabiotis [3]): no effect

[124Sb] [^124Sb]
percentage of isotope fixed (Coccomyxa actinabiotis [1]): 30%

[Co+2] [cobalt]
cobalt concentration in the presence of which the microalga grows (Coccomyxa actinabiotis [4]): 10^−4 mol/l | metal extracted from algae (Coccomyxa actinabiotis [5]; pH 0.5, 6 days of exposure): at most 35% | metal extracted from algae (Coccomyxa actinabiotis [5]; pH 1.5, 6 days of exposure): 2% | cobalt concentration inhibiting growth (Deinococcus radiodurans): 5 ppm | cobalt intolerance threshold (Co2+ concentration) (Coccomyxa actinabiotis [6]; with mucilage): > 800 mg/L | cobalt intolerance threshold (Co2+ concentration) (Coccomyxa actinabiotis [6]; without mucilage): > 50 mg/L

[58Co] [^58Co]
percentage of isotope fixed (Coccomyxa actinabiotis [1]): 94%

[60Co] [^60Co]
percentage of isotope fixed (Coccomyxa actinabiotis [1]): 94% | % binding by the algae (Coccomyxa actinabiotis [2]): 72% | metal contained in the algae extracted (Coccomyxa actinabiotis [7]): 1%

[51Cr] [^51Cr]
percentage of isotope fixed (Coccomyxa actinabiotis [1]): 48% | metal extracted from algae (Coccomyxa actinabiotis [5]; pH 0.5, 6 days of exposure): ≤ 25% | metal contained in the algae extracted (Coccomyxa actinabiotis [7]): 35%

[Mn] [^54Mn]
percentage of isotope fixed (Coccomyxa actinabiotis [1]): 90% | % binding by the algae (Coccomyxa actinabiotis [2]): 100%

[65Zn] [^65Zn]
percentage of isotope fixed (Coccomyxa actinabiotis [1]): 100%

[137Cs] [^137Cs]
% binding by the algae (Coccomyxa actinabiotis [2]): 100%

[U] [^238U]
% binding by the algae (Coccomyxa actinabiotis [2]): 95%

[Ag] [silver]
metal extracted from algae (Coccomyxa actinabiotis [5]; pH 0.5, 6 days of exposure): 90% | metal extracted from algae (Coccomyxa actinabiotis [5]; pH 1.5, 6 days of exposure): 10% | silver bound at the plateau (Coccomyxa actinabiotis [8]; algae with mucilage, initial concentration 55 mg/l): 20% | silver bound at the plateau (Coccomyxa actinabiotis [8]; algae without mucilage, initial concentration 5.5 mg/l): 75% | extracellular silver concentration withstood (Coccomyxa actinabiotis [6]; Coccomyxae actinabiotis with mucilage): at least 50 mg/L | silver concentration at which algae do not survive (Coccomyxa actinabiotis [6]; Coccomyxae actinabiotis without mucilage): greater than 250 μg/L | concentration at which silver is generally toxic (organisms): 10^−7-10^−5 mol/l
